Assay results as given in patent publication US9504672B2, “Compositions and methods for treating or preventing pneumovirus infection and associated diseases” (MicroDose Therapeutx, Inc., priority 2012, dated 2016).
Values after ≈ are worked out from the molar mass of the structure shown. Where two headings read alike, the source gives them in different places.

Columns and labels:
[1] = human, in vivo
Text: In summary, the MicroDose Inhaler operation comprises the drug powder contained in a protective blister until delivery. The blister is pierced externally and then placed in contact with a piezoelectric vibrator within the MicroDose Inhaler. When the patient inhales, an airflow sensor automatically turns on the piezo which provides energy to deaggregate the particles of powder and aerosolizes them into the inhalation airstream, providing synchronized delivery. The MicroDose Inhaler was triggered by pressure drop and programmed to produce a series of brief aerosol bursts of predetermined duration within the range of 0.1 to 2.0 seconds, preferably 0.1 seconds, early during each inhalation cycle and for 16 consecutive breaths. The studies were conducted as follows:
Study 3: A Double-Blind, Randomized, 3 Period Crossover, Single Ascending Dose Study to Assess the Safety and Tolerability of Inhaled MDT-637 P3 in Subjects with Intermittent or Mild-to-Moderate Persistent Asthma (Asthma Trial)
The primary objective of Study 3 was to assess the safety and tolerability of MDT-637 P3 when inhaled by subjects with Intermittent, or Mild-to-Moderate Persistent, Asthma. A secondary objective of Study 3 was to determine the rate and extent of systemic absorption of MDT-637 and trough nasal wash MDT-637 drug concentrations following dry powder inhalation dosing.
Each subject was dosed on 3 separate days during the study. Each subject received an initial dose of placebo (Period 1), followed by random allocation at Period 2 to a single dose of nasally inhaled MDT-637 P3 or double blind placebo. After an observation and furlough period, subjects returned for Period 3 to receive three doses of study drug (MDT-637 P3 or placebo) over a single day as listed below. The study consisted of 5 visits: Visit 1 (Screening), Visits 2, 3 and 4 (Dosing), and Visit 5 (Follow up); subjects were furloughed from the clinic for 6 up to 14 days between Visits 3 and 4 and 7-8 days between Visit 4 and 5. Subjects who met all of the inclusion criteria and none of the exclusion criteria (Table 19, FIG. 29) at Visit 1 were eligible to return for Visit 2 within 42 days of screening. Subjects were admitted to the study center twice, once for Visit 2 and again for Visit 4. Visit 5, was a safety follow up (outpatient) visit.
The doses of MDT-637 P3 were determined based on previous clinical experience in Study 1. Both placebo and active were administered as a dry powder for nasal inhalation via a face mask using a MicroDose Inhaler device. At Visit 2, all 10 patients were dosed with placebo Once Daily. At Visit 3, subjects were randomly allocated so that 8 subjects were dosed with MDT-637 P3 Once Daily 66 mcg and 2 subjects received double blind placebo. At Visit 4, subjects were again randomly allocated so that 8 subjects were dosed with MDT-637 TID 132 mcg and 2 subjects received double blind placebo.
Pharmacokinetic variables (Cmax, Tmax, AUC, T1/2) were evaluated based on blood samples drawn at Visit 4.

[2] = human, in vivo; remark: listed apart in the source
Protocol: Subjects were enrolled in cohorts of 12 subjects. […] The study consisted of 3 visits: Visit 1 (Screening), Visit 2 (Dosing), Visit 3 (Follow up) and subjects remained at the study site for pharmacokinetic (PK) sampling, spirometry, and safety assessments. […] Day 1 was the first day of dosing and Day 10 was the final day of dosing, following which subjects remained at the study site for 24 hours following the last dose for PK sampling and spirometry. Visit 3 was a follow-up visit, 7 to 10 days after the last dose. Cohorts were dosed as follows:
The first doses for twice daily (BID) and three times daily (TID) were administered in the morning, starting at approximately 0700 hours on each day of dosing. BID doses were administered at 12 hour intervals and TID doses were administered at 6 hour intervals each dose day.
Pharmacokinetic endpoints (Cmax, Tmax, AUC, T1/2) and dose proportionality was assessed based on a limited number of plasma samples following the first dose on Day 1 and last dose on Day 10
Pharmacokinetic variables (Cmax, Tmax, AUC, T1/2) were evaluated based on blood samples drawn following first dose (Days 1-2) and last dose (Days 10-11).

RSV = conditions: background statement, cited from earlier work
[3] = human, in vivo; remark: listed apart in the source
Protocol: The study consisted of 3 visits: Visit 1 (Screening), Visit 2 (Dosing) and Visit 3 (Follow up); subjects furloughed from the clinic between Visits 2 and 3.
Both active and matched placebo were administered via face mask inhalation from a proprietary delivery system (MicroDose inhaler).
Single doses were administered in the morning. TID doses will be administered at 6 hour intervals, with the 1st of the 3 doses administered in the morning.
Pharmacokinetic variables (Cmax, Tmax, AUC, T1/2) were evaluated based on blood samples drawn at Visit 2.

[4] = 40° C./75% RH, 4 weeks
physchem [5] = conditions: 25 °C, organic solvent or mixture, thermodynamic from solid
[6] = Text: Four lots of MDT-637 API were micronized using a 2-inch spiral jet mill.
[7] = remark: listed apart in the source
Protocol: The data are shown for: (a) non-hydrogenated DPPC (Sigma-Aldrich, USA) and (b) hydrogenated DPPC (Lipoid LLC, USA) surfactants at 0.02% w/v concentration. Each data point represents a triplicate sample obtained at temperature 37° C.
Time-dependent solubility study was carried out in simulated lung fluid (SLF) containing the surfactant dipalmitoylphosphatidylcholine (DPPC). The DPPC is a major surfactant present in the human lung.
Simulated lung fluid was prepared according to a method described by Moss et al. (Health Physics 1979, v36, 447-448).
A 0.1% DPPC in water solution was prepared according to a procedure published by Marques et al. (Dissolution Technologies, August 2011). The SLF solution modified with 0.02% DPPC was prepared by diluting the 0.1% DPPC solution with SLF. Refer to NB1181P59-60 for the details on the preparation procedure of SLF and SLF modified with 0.02% DPPC. Two types of DPPC were used in the study. The hydrogenated DPPC was supplied by Lipoid LLC (USA), while the non-hydrogenated DPPC was supplied by Sigma-Aldrich (catalogue # P0763-1G). […] In order to segregate the solid drug substance from the cloudy solution, a dialysis tube (Sigma-Aldrich catalogue # D9277-100FT) was used. A saturated solution of the drug substance in SLF modified with 0.02% DPPC was prepared and carefully transferred into the dialysis tube (˜10 mL in volume). […]

physchem [8] = assay: physchem
Protocol: Equilibrium solubility of different API forms in aqueous ethanol: This solubility was determined for P-2 and P-3 crystal forms using slurry equilibration and solution concentration measurement with HPLC.

[9] = for Total Imp/Deg: listed as P224-135-2; for number of impurity peaks: listed as P-2
Protocol: Forced degradation experiments consisted of placing solid samples of P-2 hydrate and P-3 dihydrate materials in sealed glass bottles at 120° C. for 7 days.

[10] = Competitive slurry stability study between P-2 and P-3 (PXRD quantitative phase analysis); type: physicochemical; conditions: 50/50 acetonitrile/water, 25° C.
[11] = Critical water activity by DVS sorption/desorption isotherms; type: physicochemical
Text: The characteristic gravimetric loss of water is between 1-4.5% w/w.
The characteristic gravimetric loss of water for P-3 dihydrate is between 5.5-8.5% w/w. The profound difference of the DVS curves between the P-2 and P-3 forms can be utilized as a secondary technique for quantitative phase analysis of these forms.

[12] = Particle size of micronized material (Sympatec HELOS & RODOS); type: physicochemical
[13] = Specific surface area (BET); type: physicochemical
[14] = Thermodynamic relationship (hierarchy) of P-2 and P-3 crystal forms; type: physicochemical
Text: FIG. 17 illustrates the thermodynamic relationship (hierarchy) of the P-2 and P-3 families of crystal forms.

[15] = Bulk powder density and flow indices (volumetric); type: physicochemical
physchem [16] = conditions: 37 °C, water, thermodynamic from solid
[17] = Slurry of equal mixture of six phases in 75/25 acetone-water (PXRD); type: physicochemical; conditions: 25° C., 12 days
Protocol: An equal powder mixture of six known phases (P-2, P-3, P-4, P-6, P-7 and P-8), 50 mg each were stirred in 75/25 acetone-water solvent (50 mL) at 25° C. over 12 days.

Q: Which “clinically significant changes in pulmonary function / pulmonary AEs” value [1] does the source give for Cc1nnnn1/N=C/c1ccc(O)c(C(c2ccc(O)cc2)c2cc(/C=N/n3nnnc3C)ccc2O)c1 [MDT-637, phenol, 2,2′-[(4-hydroxyphenyl)methylene]bis[4-[[(5-methyl-1H-tetrazol-1-yl)imino]methyl]]] here?
A: The value was “no clinically significant changes in pulmonary function or reports of pulmonary adverse events”.

Q: What about the “changes in pulmonary function / pulmonary AEs (serial spirometry)” value [2] of the same molecule?
A: Its value is “no significant changes were observed in pulmonary function or reports of pulmonary adverse events”.

Q: What about the “potency relative to ribavirin” value (RSV) of the same molecule?
A: The value was 40,000 times.

Q: What about the “reduction of RSV viral count” value (RSV; pre- and post-infection) of the same molecule?
A: Its value is “effective in reducing RSV viral count both pre- and post-infection”.

Q: And the “clinically significant changes in labs, vital signs, ECGs, physical exams” value [3]?
A: The value was “no clinically significant changes in pulmonary function, ECG, laboratory values vitals or physical examination”.

Q: For Cc1nnnn1/N=C/c1ccc(O)c(C(c2ccc(O)cc2)c2cc(/C=N/n3nnnc3C)ccc2O)c1 [P-2 hydrate, phenol, 2,2′-[(4-hydroxyphenyl)methylene]bis[4-[[(5-methyl-1H-tetrazol-1-yl)imino]methyl]]], which Assay ([4]; open dish, listed as P-2) is on record?
A: The Assay was 98.8%.

Q: And the “Rel Subs” value ([4]; open dish, listed as P-2)?
A: Its value is 0.68%.

Q: And the Water ([4]; open dish, listed as P-2)?
A: The Water was 3.5%.

Q: And the “change of form / solid-state stability (DSC and PXRD)” value ([4]; open wide glass bottles)?
A: Its value is “no change of form”.

Q: And the chemical stability ([4]; open wide glass bottles)?
A: The chemical stability was “Acceptable chemical stability”.

Q: And the solubility (physchem [5])?
A: Its solubility is 190 µg/mL.

Q: What about the “effect of micronization on crystallinity, phase purity, chemical degradation” value [6] of the same molecule?
A: The value was “did not affect the crystallinity, phase purity”.

Q: And the “factor by which solubility is lower than that of P-3 dihydrate” value [7]?
A: Its value is 5 to 6.

Q: What about the equilibrium solubility (physchem [8]) of the same molecule?
A: The equilibrium solubility was 416.5 µg/mL.

Q: And the “Grand Total” value ([9]; 120C/7D)?
A: Its value is 99.8 Area %.

Q: And the “Total Imp/Deg” value ([9]; 120C/7D)?
A: Its value is 0.76 Area %.

Q: What about the “Impurity/Degradation Product A” value ([9]; 7 days) of the same molecule?
A: The value was 0.07 Area %.

Q: What about the “Impurity/Degradation Product H” value ([9]; 7 days) of the same molecule?
A: Its value is 0.40 Area %.

Q: And the “Impurity/Degradation Product I” value ([9]; 7 days)?
A: The value was 0.07 Area %.

Q: What about the “Impurity/Degradation Product K” value ([9]; 7 days) of the same molecule?
A: The value was 0.16 Area %.

Q: What about the “Impurity/Degradation Product P” value ([9]; 7 days) of the same molecule?
A: The value was 0.06 Area %.

Q: And the “Grand Total” value ([9]; CTRL)?
A: The value was 99.9 Area %.

Q: What about the “Total Imp/Deg” value ([9]; CTRL) of the same molecule?
A: Its value is 0.67 Area %.

Q: What about the “number of impurity peaks” value ([9]; control) of the same molecule?
A: The value was 4 peaks.

Q: And the “number of impurity peaks” value ([9]; stressed sample, 120° C. for 7 days)?
A: Its value is 5 peaks.

Q: What about the “composition of slurry for P-2 hydrate” value ([10]; 4 days (50% at day 0)) of the same molecule?
A: The value was 77%.

Q: What about the “composition of slurry for P-2 hydrate” value ([10]; 10 days (50% at day 0)) of the same molecule?
A: The value was 85%.

Q: And the “critical water activity for transition between P-2 hydrate and anhydrous forms” value ([11]; 1% RH equilibration steps)?
A: The value was 30-40 % RH.

Q: And the “Characteristic relative humidity of dehydration (20° C.)” value ([11]; 20° C.)?
A: The value was 30-40%.

Q: And the “Characteristic medium volume particle size (micronized)” value [12]?
A: The value was 1.1 μm.

Q: What about the Specific surface area [13] of the same molecule?
A: Its Specific surface area is 22.6 m^2/g.

Q: What about the thermodynamic stability ([14]; ambient conditions (15-37° C., 40-100% RH)) of the same molecule?
A: Its thermodynamic stability is “most stable crystal form”.

Q: What about the Carr index [15] of the same molecule?
A: The Carr index was 16.7%.

Q: What about the Hausner ratio [15] of the same molecule?
A: Its Hausner ratio is 1.20.

Q: And the “Poured bulk powder density” value [15]?
A: Its value is 0.16 g/mL.

Q: And the “Tapped bulk powder density” value [15]?
A: The value was 0.19 g/mL.

Q: And the solubility (physchem [16])?
A: The solubility was less than 6 nM.

Q: And the “form conversion / stability in six-phase slurry” value (shortened to “form conversion / stability”) [17]?
A: Its value is “most thermodynamically stable form”.

Q: Which “form conversion / stability” value [17] does the source give for Cc1nnnn1/N=C/c1ccc(O)c(C(c2ccc(O)cc2)c2cc(/C=N/n3nnnc3C)ccc2O)c1 [P-6, phenol, 2,2′-[(4-hydroxyphenyl)methylene]bis[4-[[(5-methyl-1H-tetrazol-1-yl)imino]methyl]]] here?
A: Its value is “convert to P-2 hydrate”.

Q: For Cc1nnnn1/N=C/c1ccc(O)c(C(c2ccc(O)cc2)c2cc(/C=N/n3nnnc3C)ccc2O)c1 [P-3 ethanolate, phenol, 2,2′-[(4-hydroxyphenyl)methylene]bis[4-[[(5-methyl-1H-tetrazol-1-yl)imino]methyl]]], which solubility thermodynamic (physchem [8]; organic solvent or mixture, thermodynamic from solid, equilibrium solubility) is on record?
A: The solubility thermodynamic was 240 µg/mL (≈ 470 µM).

Q: And the thermodynamic stability ([14]; sufficient activity of ethanol, preferably above 0.3)?
A: Its thermodynamic stability is “most stable crystal form”.

Q: Which “form conversion / stability” value [17] does the source give for Cc1nnnn1/N=C/c1ccc(O)c(C(c2ccc(O)cc2)c2cc(/C=N/n3nnnc3C)ccc2O)c1 [P-4, phenol, 2,2′-[(4-hydroxyphenyl)methylene]bis[4-[[(5-methyl-1H-tetrazol-1-yl)imino]methyl]]] here?
A: Its value is “convert to P-2 hydrate”.

Q: For Cc1nnnn1/N=C/c1ccc(O)c(C(c2ccc(O)cc2)c2cc(/C=N/n3nnnc3C)ccc2O)c1 [P-7, phenol, 2,2′-[(4-hydroxyphenyl)methylene]bis[4-[[(5-methyl-1H-tetrazol-1-yl)imino]methyl]]], which “form conversion / stability” value [17] is on record?
A: The value was “convert to P-2 hydrate”.

Q: Which “form conversion / stability” value [17] does the source give for Cc1nnnn1/N=C/c1ccc(O)c(C(c2ccc(O)cc2)c2cc(/C=N/n3nnnc3C)ccc2O)c1 [P-8, phenol, 2,2′-[(4-hydroxyphenyl)methylene]bis[4-[[(5-methyl-1H-tetrazol-1-yl)imino]methyl]]] here?
A: The value was “convert to P-2 hydrate”.
